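Where inhibition never reached the appropriate level, the endpoint shown equals the highest concentration tested. Otherwise, values were interpolated linearly from a five-concentration, 48-hour dose response in 96-well plates. Abbreviation: GI50, concentration required for 50% inhibition of growth. TGI: concentration producing complete growth inhibition.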
How the values were obtained:
Assay in all cases: DTP human tumour cell line panel, 48 h
BT-549 breast = system: BT-549 breast
CCRF-CEM leukemia = system: CCRF-CEM leukemia
HCT-116 colon = system: HCT-116 colon
HL-60(TB) leukemia = system: HL-60(TB) leukemia
IGROV1 ovarian = system: IGROV1 ovarian
NCI-H23 lung = system: NCI-H23 lung
NCI-H460 lung = system: NCI-H460 lung
SF-295 CNS = system: SF-295 CNS
SN12C renal = system: SN12C renal
SNB-75 CNS = system: SNB-75 CNS

Row | SMILES | GI50 (BT-549 breast) | TGI (BT-549 breast) | GI50 (CCRF-CEM leukemia) | GI50 (HCT-116 colon) | TGI (HCT-116 colon) | GI50 (HL-60(TB) leukemia) | TGI (HL-60(TB) leukemia) | GI50 (IGROV1 ovarian) | TGI (IGROV1 ovarian) | GI50 (NCI-H23 lung) | TGI (NCI-H23 lung) | GI50 (NCI-H460 lung) | TGI (NCI-H460 lung) | GI50 (SF-295 CNS) | TGI (SF-295 CNS) | GI50 (SN12C renal) | TGI (SN12C renal) | GI50 (SNB-75 CNS) | TGI (SNB-75 CNS) | TGI (CCRF-CEM leukemia)
1 | Cc1nc2sc(C(=O)Nc3ccccc3)c(N)c2cc1C(O)c1ccccc1 (centres undefined) | 0.409 µM | 24.1 µM | 0.234 µM | 0.255 µM | 12.8 µM | 0.234 µM | 0.657 µM | 0.445 µM | 44.4 µM | 0.664 µM | > 100 µM | 0.329 µM | 1.73 µM | 0.252 µM | 4.29 µM | 0.46 µM | > 100 µM | 0.244 µM | > 72.8 µM | 
2 | CNCC(=O)NC(CO)C(=O)NC(CO)C(=O)NC1C(C(N)=O)OC(n2ccc(N)nc2=O)C(O)C1O (centres undefined) | 7.25 µg/mL | 25.3 µg/mL | > 50 µg/mL | 4.68 µg/mL | 40.3 µg/mL | > 50 µg/mL | > 50 µg/mL | 3.33 µg/mL | 26.4 µg/mL | 8.49 µg/mL | 48.8 µg/mL | 3.39 µg/mL | 31.3 µg/mL | 2.78 µg/mL | 17 µg/mL | 9.89 µg/mL | > 50 µg/mL | 1.27 µg/mL | 8.92 µg/mL | > 50 µg/mL
3 | COC(=O)c1c2c(c(C)[n+]([O-])c1C)C(=O)C(NCc1ccc(F)cc1)=CC2=O | 1.73 µM | 3.78 µM | 2.34 µM | 0.957 µM | 6.28 µM | 0.745 µM | 3.6 µM | 1.15 µM | 2.76 µM | 1.33 µM | 3.79 µM | 0.792 µM | 5.98 µM | 1.42 µM | 3 µM | 1.17 µM | 2.62 µM | 2.23 µM | 5.96 µM | 8.36 µM
4 | CC1=NN(c2cccc(Cl)c2)C(=O)/C1=C\C=C\c1ccccc1 | 1.64 µM | 3.17 µM | 3.14 µM | 1.56 µM | 3.09 µM | 3.14 µM | > 100 µM | 1.67 µM | 4.23 µM | 2.32 µM | 6.13 µM | 1.67 µM | 3.28 µM | 3.17 µM | 67.8 µM | 2.44 µM | 7.53 µM | 7.12 µM | > 100 µM | > 100 µM
5 | Cc1cc2c3c([n+](C)c4ccc(F)cc4c3c1)-c1cc(F)ccc1N2C | 4.63 µM | 33.9 µM | 7.17 µM | 19.9 µM | > 100 µM | 25.4 µM | > 100 µM | 19.9 µM | > 100 µM | 9.46 µM | 68.6 µM | 15.4 µM | 49.5 µM | 7.54 µM | > 100 µM | 2.34 µM | 23.5 µM | 11 µM | 41.5 µM | > 100 µM
6 | [Cl][Hg][c]1ccc2ccccc2c1 | 1.46 µM | 2.82 µM | 0.924 µM | 3.18 µM | 7.59 µM | 0.655 µM | 2.36 µM | 1.31 µM | 3.02 µM | 1.51 µM | 3.95 µM | 4.18 µM | 23.8 µM | 7.01 µM | 18.9 µM | 1.76 µM | 3.57 µM | 2.24 µM | 5.79 µM | 9.32 µM

Source: PubChem BioAssay (NCI)
